From patent US20090023704A1, “Novel Compounds 737” (ASTRAZENECA AB, priority 2007, published 2009)

molecular target: T1, GABAB receptor (GABABR1a/GABABR2 heterodimer) (Homo sapiens, UniProt O75899+Q9UBS5); test: [35S]-GTPγS binding assay, potency of PAM (GABA dose-response curves with and without test compound); assay type: biochemical; details: potency of the positive allosteric modulator; GABA dose-response in presence of test compound
T1 construct: expressed in transfected cells
From the text: GABABR1a and GABABR2 were cloned from human brain cDNA and subcloned into pCI-Neo (Promega) and pALTER-1 (Promega), respectively. A GABABR1a-Gαqi5 fusion protein expression vector was constructed using the pCI-Neo-GABABR1a cDNA plasmid and pLEC1-Gαqi5 (Molecular Devices, CA). In order to make the Gαqi5 pertussis toxin insensitive, Cys356 was mutated to Gly using standard PCR methodology with the primers 5′-[…]-3′ (forward) and 5′-GCGGCCG […]-3′ (reverse). The Gαqi5mut cDNA was ligated into the BamHI and NotI sites of pcDNA3.0 (Invitrogen). The GABAB R1a coding sequence was amplified by PCR from pCI-Neo-GABABR1a using the primers, 5′-[…]-3′ (forward) and 5′-[…]-3′ (reverse) and subcloned into the BamHI site of pcDNA3.0-Gαqi5mut.
For generation of a cell line expressing the GABABR1a/GABABR2 heterodimer, GABABR1a plasmid DNA (4 μg) GABABR2 plasmid DNA (4 μg) and lipofectamine (24 μl) were mixed in 5 ml OptiMEM and incubated for 45 minutes at room temperature. The cells were exposed to the transfection medium for 5 hours, which then was replaced with culture medium. The cells were cultured for an additional 10 days before selection agents (300 μg/ml hygromycin and 400 μg/ml geneticin) were added. Twenty-four days after transfection, single cell sorting into 96-well plates by flow cytometry was performed using a FACS Vantage SE (Becton Dickinson, Palo Alto, Calif.). After expansion, the GABAB receptor functional response was tested using the FLIPR assay described below. The clone with the highest functional response was collected, expanded and then subcloned by single cell sorting. The clonal cell line with the highest peak response in the FLIPR was used in the present study.
For generation of a stable cell line expressing GABABR1a-Gαqi5 fusion protein and GABABR2, GABABR1a-Gαqi5mut plasmid DNA (8 μg) GABABR2 plasmid DNA (8 μg) and lipofectamine (24 μl) were mixed in 5 ml OptiMEM and incubated for 45 minutes at room temperature. The cells were exposed to the transfection medium for 5 hours, which then was replaced with culture medium. After forty-eight hours, the cells were detached and seeded in 6 well plates (2000 cells/well) and grown in culture medium supplemented with geneticin (400 μg/ml) and zeocin (250 μg/ml). After 4 days, cells from single colonies were collected and transferred to a 24-well plate. After 10 days, the cell clones were seeded in T-25 flasks and grown for another 16 days before they were tested for GABAB receptor mediated functional response. […] The clonal cell line that gave the highest peak response in the FLIPR was used in the present study.
[^35S]-GTPγS binding assays were performed at 30° C. for 45 min in membrane buffer (100 mM NaCl, 5 mM MgCl2, 1 mM EDTA, 50 mM HEPES, pH 7.4) containing 0.025 μg/μl of membrane protein (prepared from the cell lines described above) with 0.01% bovine serum albumin (fatty acid free), 10 μM GDP, 10 μM DTT and 0.53 nM [^35S]-GTPγS (Amersham-Pharmacia Biotech) in a final volume of 200 μl. Non-specific binding was determined in the presence of 20 μM GTPγS. The reaction was started by the addition of GABA at concentration between 1 mM and 0.1 nM in the presence or absence of the required concentration of PAM. The reaction was terminated by addition of ice-cold wash buffer (50 mM Tris-HCl, 5 mM MgCl2, 50 mM NaCl, pH 7.4) followed by rapid filtration under vacuum through Printed Filtermat A glass fiber filters (Wallac) (0.05% PEI treated) using a Micro 96 Harvester (Skatron Instruments). The filters were dried for 30 min at 50° C., then a paraffin scintillant pad was melted onto the filters and the bound radioactivity was determined using a 1450 Microbeta Trilux (Wallac) scintillation counter.
GABA dose-response curves in the presence and absence of test compounds were constructed using the 4-parameter logistic equation, y=ymax+((ymin−ymax)/1+(x/C)^D), where C=EC50 and D=slope factor.

T1 sequence (Q9UBS5 15-961 limits assumed): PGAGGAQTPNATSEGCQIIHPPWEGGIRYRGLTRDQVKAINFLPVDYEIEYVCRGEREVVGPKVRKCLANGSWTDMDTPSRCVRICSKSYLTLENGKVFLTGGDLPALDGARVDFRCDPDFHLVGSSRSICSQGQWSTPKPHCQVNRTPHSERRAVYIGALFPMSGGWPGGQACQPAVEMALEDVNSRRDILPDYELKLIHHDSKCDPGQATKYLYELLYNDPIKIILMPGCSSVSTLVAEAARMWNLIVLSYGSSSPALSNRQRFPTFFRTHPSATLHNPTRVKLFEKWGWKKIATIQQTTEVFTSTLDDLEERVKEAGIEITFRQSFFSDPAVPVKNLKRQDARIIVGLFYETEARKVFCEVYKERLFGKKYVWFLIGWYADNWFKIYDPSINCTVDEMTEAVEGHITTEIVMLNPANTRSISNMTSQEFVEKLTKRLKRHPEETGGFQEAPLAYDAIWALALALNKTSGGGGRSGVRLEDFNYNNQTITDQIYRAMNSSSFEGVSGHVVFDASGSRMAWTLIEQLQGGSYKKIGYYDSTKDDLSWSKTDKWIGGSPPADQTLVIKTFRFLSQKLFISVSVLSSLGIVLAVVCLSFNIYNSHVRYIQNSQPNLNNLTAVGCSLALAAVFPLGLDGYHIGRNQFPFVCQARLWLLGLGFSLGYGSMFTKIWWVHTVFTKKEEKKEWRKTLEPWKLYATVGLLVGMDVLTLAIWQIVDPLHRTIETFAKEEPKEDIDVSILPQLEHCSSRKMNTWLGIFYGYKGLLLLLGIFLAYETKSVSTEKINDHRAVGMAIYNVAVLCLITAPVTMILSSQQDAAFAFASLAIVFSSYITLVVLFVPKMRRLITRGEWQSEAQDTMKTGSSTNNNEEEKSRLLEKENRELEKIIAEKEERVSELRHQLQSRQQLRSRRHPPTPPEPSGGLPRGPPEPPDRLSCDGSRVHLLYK
T1 sequence (O75899 42-941): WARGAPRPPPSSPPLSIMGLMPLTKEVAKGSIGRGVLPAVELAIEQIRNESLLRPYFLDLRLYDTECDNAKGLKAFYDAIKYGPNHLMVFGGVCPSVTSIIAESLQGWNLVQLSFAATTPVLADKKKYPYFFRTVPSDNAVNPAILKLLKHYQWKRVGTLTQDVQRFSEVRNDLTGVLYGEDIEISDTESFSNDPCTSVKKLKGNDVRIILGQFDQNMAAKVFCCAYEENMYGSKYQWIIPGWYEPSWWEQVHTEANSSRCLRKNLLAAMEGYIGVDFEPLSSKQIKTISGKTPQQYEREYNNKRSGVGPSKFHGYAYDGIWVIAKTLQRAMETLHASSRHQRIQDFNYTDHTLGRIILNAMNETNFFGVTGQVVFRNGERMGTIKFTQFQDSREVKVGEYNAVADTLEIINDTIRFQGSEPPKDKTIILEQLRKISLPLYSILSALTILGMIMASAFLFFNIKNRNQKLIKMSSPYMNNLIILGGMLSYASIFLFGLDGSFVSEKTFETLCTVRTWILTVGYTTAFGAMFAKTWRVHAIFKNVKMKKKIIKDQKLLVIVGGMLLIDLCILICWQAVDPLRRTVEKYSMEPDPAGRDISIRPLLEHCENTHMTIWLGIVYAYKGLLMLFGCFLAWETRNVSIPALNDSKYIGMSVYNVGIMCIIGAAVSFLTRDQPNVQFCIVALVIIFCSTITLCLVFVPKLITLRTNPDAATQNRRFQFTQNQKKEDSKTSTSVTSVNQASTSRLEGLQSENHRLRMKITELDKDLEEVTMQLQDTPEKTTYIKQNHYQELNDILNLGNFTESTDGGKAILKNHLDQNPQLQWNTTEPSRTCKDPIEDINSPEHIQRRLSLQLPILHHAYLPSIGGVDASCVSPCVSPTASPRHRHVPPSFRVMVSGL

Structure (SMILES)	EC50
COc1nc2c(c(=O)n(Cc3ccc(Cl)cc3)c(=O)n2CCCC(F)(F)F)n1C [Example 81, 1-(4-chlorobenzyl)-8-methoxy-7-methyl-3-(4,4,4-trifluorobutyl)-3,7-dihydro-1H-purine-2,6-dione]	11.5 µM
CCCn1c(=O)n(Cc2nc3cc(C(F)(F)F)ccc3s2)c(=O)c2c1nc(CC)n2C [Example 66, 8-Ethyl-7-methyl-3-propyl-1-{[5-(trifluoromethyl)-1,3-benzothiazol-2-yl]methyl}-3,7-dihydro-1H-purine-2,6-dione]	17.3 µM
CCc1nc2c(c(=O)n(Cc3ccc(Cl)cc3)c(=O)n2CCCN2CCN(c3ccccc3)CC2)n1C [Example 47, 1-(4-Chlorobenzyl)-8-ethyl-7-methyl-3-[3-(4-phenylpiperazin-1-yl)propyl]-3,7-dihydro-1H-purine-2,6-dione]	8.7 µM
CCCn1c(=O)n(Cc2ccc(Cl)cc2)c(=O)c2c1nc(OC)n2C [Example 78, 1-(4-Chlorobenzyl)-8-methoxy-7-methyl-3-propyl-3,7-dihydro-1H-purine-2,6-dione]	4.5 µM
CCCn1c(=O)n(Cc2ccc(OCc3ccccc3)cc2)c(=O)c2c1nc(CC)n2C [Example 56, 1-[4-(Benzyloxy)benzyl]-8-ethyl-7-methyl-3-propyl-3,7-dihydro-1H-purine-2,6-dione]	15 µM
CCCn1c(=O)n(Cc2ccc(Cl)cc2)c(=O)c2c1nc(N(C)C)n2C [Example 82, 1-(4-chlorobenzyl)-8-(dimethylamino)-7-methyl-3-propyl-3,7-dihydro-1H-purine-2,6-dione]	5.6 µM
CCc1nc2c(c(=O)n(Cc3ccc(Cl)cc3)c(=O)n2Cc2cc(C)on2)n1C [Example 16, 1-(4-Chlorobenzyl)-8-ethyl-7-methyl-3-[(5-methylisoxazol-3-yl)methyl]-3,7-dihydro-1H-purine-2,6-dione]	6.8 µM
CCCn1c(=O)n(Cc2ccc(F)cc2)c(=O)c2c1nc(OC)n2C [Example 79, 1-(4-Fluorobenzyl)-8-methoxy-7-methyl-3-propyl-3,7-dihydro-1H-purine-2,6-dione]	14.5 µM
CCCn1c(=O)n(Cc2ccc3ccccc3c2)c(=O)c2c1nc(CC)n2C [Example 58, 8-Ethyl-7-methyl-1-(2-naphthylmethyl)-3-propyl-3,7-dihydro-1H-purine-2,6-dione]	2.7 µM
CCc1nc2c(c(=O)n(Cc3ccc(Cl)cc3)c(=O)n2Cc2ccc(SC(F)(F)F)cc2)n1C [Example 25, 1-(4-chlorobenzyl)-8-ethyl-7-methyl-3-{4-[(trifluoromethyl)thio]benzyl}-3,7-dihydro-1H-purine-2,6-dione]	5.3 µM
CCCn1c(=O)n(Cc2ccc(Cl)cc2)c(=O)c2c1nc(N(C)CCOC)n2C [Example 91, 1-(4-chlorobenzyl)-8-[(2-methoxyethyl)(methyl)amino]-7-methyl-3-propyl-3,7-dihydro-1H-purine-2,6-dione]	8.3 µM
CCCn1c(=O)n(Cc2ccc(Cl)cc2)c(=O)c2c1nc(N(CC)CC)n2C [Example 89, 1-(4-chlorobenzyl)-8-(diethylamino)-7-methyl-3-propyl-3,7-dihydro-1H-purine-2,6-dione]	1.8 µM
CCc1nc2c(c(=O)n(Cc3ccc(Cl)cc3)c(=O)n2Cc2ccccc2)n1C [Example 1, 3-benzyl-1-(4-chlorobenzyl)-8-ethyl-7-methyl-3,7-dihydro-1H-purine-2,6-dione]	6.33 µM
CCc1nc2c(c(=O)n(Cc3ccc(Cl)c(Cl)c3)c(=O)n2CCCCC2CCCCC2)n1C [Example 44, 3-(4-Cyclohexylbutyl)-1-(3,4-dichlorobenzyl)-8-ethyl-7-methyl-3,7-dihydro-1H-purine-2,6-dione]	12.5 µM
CCc1nc2c(c(=O)n(Cc3ccc(Cl)cc3)c(=O)n2Cc2c(-c3ccccc3)noc2C)n1C [Example 30, 1-(4-chlorobenzyl)-8-ethyl-7-methyl-3-[(5-methyl-3-phenylisoxazol-4-yl)methyl]-3,7-dihydro-1H-purine-2,6-dione]	4.6 µM
CCCn1c(=O)n(Cc2ccc(Cl)cc2)c(=O)c2c1nc(N1CCCC1)n2C [Example 86, 1-(4-chlorobenzyl)-7-methyl-3-propyl-8-pyrrolidin-1-yl-3,7-dihydro-1H-purine-2,6-dione]	3.6 µM
CCc1nc2c(c(=O)n(Cc3ccc(Cl)cc3)c(=O)n2Cc2scc(S(=O)(=O)C(C)C)c2Cl)n1C [Example 39, 1-(4-chlorobenzyl)-3-{[3-chloro-4-(isopropylsulfonyl)-2-thienyl]methyl}-8-ethyl-7-methyl-3,7-dihydro-1H-purine-2,6-dione]	1.8 µM
CCc1nc2c(c(=O)n(Cc3ccc(Cl)cc3)c(=O)n2CCCOC(C)(C)C)n1C [Example 21, 3-(3-tert-butoxypropyl)-1-(4-chlorobenzyl)-8-ethyl-7-methyl-3,7-dihydro-1H-purine-2,6-dione]	7.2 µM
CCc1nc2c(c(=O)n(Cc3ccc(Cl)cc3)c(=O)n2CC2OCCO2)n1C [Example 14, 1-(4-Chlorobenzyl)-3-(1,3-dioxolan-2-ylmethyl)-8-ethyl-7-methyl-3,7-dihydro-1H-purine-2,6-dione]	12.3 µM
CCCn1c(=O)n(CCc2ccc(Cl)cc2)c(=O)c2c1nc(CC)n2C [Example 63, 1-[2-(4-Chlorophenyl)ethyl]-8-ethyl-7-methyl-3-propyl-3,7-dihydro-1H-purine-2,6-dione]	13.8 µM
CCc1nc2c(c(=O)n(Cc3ccc(Cl)cc3)c(=O)n2CC2COc3ccccc3O2)n1C (stereo not shown) [Example 24, 1-(4-chlorobenzyl)-3-(2,3-dihydro-1,4-benzodioxin-2-ylmethyl)-8-ethyl-7-methyl-3,7-dihydro-1H-purine-2,6-dione]	5.1 µM
CCc1nc2c(c(=O)n(Cc3ccc(Cl)cc3)c(=O)n2CCCS(=O)(=O)C(C)(C)C)n1C [Example 34, 3-[3-(tert-butylsulfonyl)propyl]-1-(4-chlorobenzyl)-8-ethyl-7-methyl-3,7-dihydro-1H-purine-2,6-dione]	11.3 µM
CCc1nc2c(c(=O)n(Cc3ccc(Cl)cc3)c(=O)n2CCC(F)(F)F)n1C [Example 75]	3.5 µM
CCc1nc2c(c(=O)n(Cc3ccc(Cl)cc3)c(=O)n2Cc2ccc(OC)cc2OC)n1C [Example 71, 1-(4-Chlorobenzyl)-3-(2,4-dimethoxybenzyl)-8-ethyl-7-methyl-3,7-dihydro-1H-purine-2,6-dione]	11.3 µM
CCCn1c(=O)n(Cc2ccc(Br)cc2)c(=O)c2c1nc(CC)n2C [Example 61, 1-(4-Bromobenzyl)-8-ethyl-7-methyl-3-propyl-3,7-dihydro-1H-purine-2,6-dione]	4.2 µM
CCc1nc2c(c(=O)n(Cc3ccc(Cl)cc3)c(=O)n2CC(O)C(F)(F)F)n1C (stereo not shown) [Example 23, 1-(4-chlorobenzyl)-8-ethyl-7-methyl-3-(3,3,3-trifluoro-2-hydroxypropyl)-3,7-dihydro-1H-purine-2,6-dione]	2.1 µM
CCc1nc2c(c(=O)n(Cc3ccc(Cl)cc3)c(=O)n2CCC(C)(C)C)n1C [Example 2, 1-(4-Chlorobenzyl)-3-(3,3-dimethylbutyl)-8-ethyl-7-methyl-3,7-dihydro-1H-purine-2,6-dione]	1.5 µM
CCCn1c(=O)n(Cc2ccc(Cl)cc2)c(=O)c2c1nc(CC)n2C [Example 54, 1-(4-chlorobenzyl)-8-ethyl-7-methyl-3-propyl-3,7-dihydro-1H-purine-2,6-dione]	5.89 µM
